Data reported in patent US20040018500A1, “Methods and systems for analyzing complex biological systems” (priority 2001, published 2004).

Tested on: Saccharomyces cerevisiae wild type strain BY4743
Assay: AF1 gene expression analysis (microarray) of yeast treated with antifungal drugs
Type: cell-based
Conditions: p < 0.05; KEGG pathway mapping
Description: Saccharomyces cerevisiae wild type strain BY4743 was purchased from American Type Culture Center (ATCC, Manassas, Va.). The yeast strain was grown in YPD or SD media. […] The cultures started from fresh single colonies were grown in 1.0 ml YPD overnight at 30° C. […] The OD600 was adjusted to 1.0 with YPD media, then 2.0 ml of each was inoculated into three 250 ml flasks, each containing 50 ml of SD media. […] The cells were kept growing for another two hours, then collected by centrifugation at 4000 rpm for 5 minutes at 4° C. Pellets were washed once with ice-cold water, then were lyophilized overnight at 4° C. […] RNA quality was determined using the Bioanalyzer 2100 and the RNA 6000 assay (Agilent Technologies, Palo Alto, Calif.) according to manufacturer's instructions. RNA concentrations were determined spectrophotometrically by measuring the absorption at 260 nm in an Ultrospec 2000 (Pharmacia Biotech, Piscataway, N.J.). […] Labeled cRNAs were evaluated using the RNA 6000 assay on the Agilent Bioanalyzer 2100. Labeled cRNA concentrations were determined spectrophotometrically by measuring the absorption at 260 nm in an Ultrospec 2000 (Pharmacia Biotech, Piscataway, N.J.). […] Each feature was determined from an array's associated pattern file and a detection algorithm. […] Data was evaluated after combining results from fluor reversal replicate hybridizations. […]

C[C@@H]1[C@H](O)[C@@H](C)/C=C/C=C/C=C/C=C/C=C/C=C/C=C/[C@H](O[C@@H]2O[C@H](C)[C@@H](O)[C@H](N)[C@@H]2O)C[C@@H]2O[C@](O)(C[C@@H](O)C[C@@H](O)[C@H](O)CC[C@@H](O)C[C@@H](O)CC(=O)O[C@H]1C)C[C@H](O)[C@H]2C(=O)O [Amphoteracin B]
# Pathways Affected by at Least One Gene: 97
